Measurements reported in US9820487B2, “Abscinazole” (NATIONAL UNIVERSITY CORPORATION SHIZUOKA UNIVERSITY, priority 2014, dated 2017).

What was measured:
[1] = test system: seeds of thale cress (Arabidopsis thaliana, Col-0); experiment: Thale cress seed germination inhibition test (2); type: in vivo; conditions: 120 hours after seed plantation (FIG. 3)
Description: Seeds of thale cress (Arabidopsis thaliana, Col-0) were immersed in […] an aqueous solution of 70% ethanol for 30 minutes, subsequently in 500 μL of 100% ethanol for 1 minute, washed three times in 1 mL of distilled water, then immersed in distilled water and, in a dark place, verbalized at 4° C. for 3 days. A solution of the sample in methanol and a solution of ABA in methanol were put in a 1.5 mL microtube, and methanol was removed therefrom under reduced pressure. An aqueous solution of 0.5% agar (containing 1/2 MS medium inorganic salts) at 70° C. was added thereto, followed by stirring the resultant. The obtained solution was placed in a 96-well plate to provide the medium containing the sample. 20 to 30 vernalized seeds of thale cress were planted in each well and cultured at 22° C. under continuous light to monitor the number of seeds germinated over time. The germination rate was calculated in accordance with the following formula (1). Note that the medium prepared using methanol in the same manner as above was used as an untreated control and a germination rate of 100% was achieved 72 hours later from the seed plantation. Germination rates 72 hours later from the seed plantation are shown in FIG. 1 and initial growth conditions of thale cress 120 hours later are shown in FIG. 2.
Germination rate (%)=Number of seeds germinated/Number of seeds planted×100 . . . (1) […]

[2] = biological target: T1, abscisic acid 8′-hydroxylase CYP707A3 (Arabidopsis thaliana, UniProt Q9FH76); experiment: Abscisic acid 8′-hydroxylase CYP707A3 inhibition test; type: biochemical; conditions: CYP707A3 + NADPH-P450 reductase ATR1, substrate ABA, 30° C. 10 minutes; IC50 calculated from two concentrations
T1 sequence (Q9FH76 1-463): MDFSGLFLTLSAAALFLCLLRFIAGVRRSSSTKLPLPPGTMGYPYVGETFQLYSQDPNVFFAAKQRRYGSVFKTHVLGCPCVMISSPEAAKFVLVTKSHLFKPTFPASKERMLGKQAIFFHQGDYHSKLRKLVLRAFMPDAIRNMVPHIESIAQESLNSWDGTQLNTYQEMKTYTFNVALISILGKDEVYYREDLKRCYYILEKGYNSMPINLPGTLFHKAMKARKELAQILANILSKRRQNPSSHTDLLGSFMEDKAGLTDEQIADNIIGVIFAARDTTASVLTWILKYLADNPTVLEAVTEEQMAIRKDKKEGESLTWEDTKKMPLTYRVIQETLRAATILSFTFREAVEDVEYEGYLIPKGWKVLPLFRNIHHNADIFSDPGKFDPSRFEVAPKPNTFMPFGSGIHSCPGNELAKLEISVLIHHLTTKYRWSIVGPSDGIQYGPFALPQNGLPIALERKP
Description: In a 1.5 mL microtube, 10 μL of a solution of substrate 250 μM ABA in potassium/phosphate buffer (KPB), 5 μL of a solution of the sample in dimethylformamide, 435 μL of KPB and 40 μL of abscisic acid 8′-hydroxylase CYP707A3+NADPH-P450 reductase ATR1 were put and heated at 30° C. for 10 minutes. 10 μL of a solution of 5 mg/mL NADPH in KPB was added thereto thereby starting the enzyme reaction. The reaction was carried out at 30° C. for 10 minutes at a rotation speed of 1000 rpm, and 25 μL of an aqueous solution of 1 M sodium hydroxide was added thereto thereby terminating the reaction. The reaction solution was allowed to stand at 4° C. for 30 minutes and subsequently 50 μL of 1 M hydrochloric acid was added thereto to convert the enzyme metabolite to phaseic acid (PA). The enzyme reaction solution was subjected to an OASIS HLB cartridge (1 cc, 30 mg; washed with 1 mL of methanol (1% acetic acid) and equilibrated with 1 mL of water (1% acetic acid)) and washed with 1 mL of 10% methanol/water (1% acetic acid) thereby eluting phaseic acid with 1 mL of methanol (1% acetic acid). The eluate was concentrated under reduced pressure (toluene was added to azeotrope acetic acid), the obtained substance was dissolved in 50 μL of methanol. 20 μL of the solution was subjected to HPLC (column, YMC-Pack Hydrosphere C18 (6 mm inner diameter×150 mm length); flow rate 1 mL/min; detection 254 nm) analysis. The CYP707A3 inhibition rate of the samples was calculated in accordance with the following formula (3). Note that dimethylformamide was used for the control in place of the sample solution. Each sample was tested with two different concentrations to calculate the 50% inhibition concentration (IC50) based on the enzyme inhibition rates thereof The results are shown in Table 1.
Enzyme inhibition rate (%)={1-(PA peak area of each sample/PA peak area of control)}×100 . . . (3)

potency estimated from few doses [2]: 64 nM
Structure (SMILES): COCCOCCOCCOCC#Cc1cccc(/C=C(\[C@@H](O)C(C)(C)C)n2cncn2)c1 [Example 1 (−) Form, (−)-(S)-(E)-1-(3-(2,5,8,11-tetraoxatetradec-13-yn-14-yl)phenyl)-4,4-dimethyl-2-(1H-1,2,4-triazol-1-yl)pent-1-en-3-ol]
seed germination inhibition compared with (−) form of Comparative Example 1 [1]: can inhibit the seed germination even in lower concentrations
